# ± gives the standard deviation of the averaged measurements.
# Legend:
# OSI-906 = compound: C[C@]1(O)C[C@@H](c2nc(-c3ccc4ccc(-c5ccccc5)nc4c3)c3c(N)nccn32)C1 [OSI-906]; assay: surviving fraction relative to DMSO-only wells; higher = less growth inhibition; details: exposure time: 5 days
# Method in brief: (§1)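 After seeding at 250–500 cells per well in 384-well plates and a 24-hour wait, log-phase tumour cell lines were exposed without interruption for five days to inhibitors at 0.5, 1, 5, 10, 50, 100, 500 and 1000 nM. CellTiter-Glo luminescence was recorded after 10 minutes at room temperature. Viability is reported as surviving fraction, the luminescence normalised to the median of DMSO-only wells.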
# CARBOPLATIN = compound: O=C(O)C1(C(=O)O)CCC1.[NH2-].[NH2-].[Pt+2] [CARBOPLATIN]; assay: as above; details: exposure time: 5 days
# Method in brief: as §1
Test System,surviving fraction (OSI-906; 0.5 nM),surviving fraction (OSI-906; 1 nM),surviving fraction (OSI-906; 5 nM),surviving fraction (OSI-906; 10 nM),surviving fraction (OSI-906; 50 nM),surviving fraction (OSI-906; 100 nM),surviving fraction (OSI-906; 500 nM),surviving fraction (OSI-906; 1000 nM),surviving fraction (CARBOPLATIN; 0.5 nM),surviving fraction (CARBOPLATIN; 1 nM),surviving fraction (CARBOPLATIN; 5 nM),surviving fraction (CARBOPLATIN; 10 nM),surviving fraction (CARBOPLATIN; 50 nM),surviving fraction (CARBOPLATIN; 100 nM),surviving fraction (CARBOPLATIN; 500 nM),surviving fraction (CARBOPLATIN; 1000 nM)
JURKAT HAEMATOPOIETIC AND LYMPHOID TISSUE,0.966 ± 0.033,0.971 ± 0.013,0.998 ± 0.032,0.9753 ± 0.009,0.98 ± 0.067,0.965 ± 0.039,1.02 ± 0.012,0.99 ± 0.021,1 ± 0.021,1.05 ± 0.043,1 ± 0.025,1.03 ± 0.012,1 ± 0.039,1.07 ± 0.031,1.01 ± 0.042,1.04 ± 0.019
SYO1 SYNOVIAL,0.795 ± 0.048,0.814 ± 0.044,0.832 ± 0.023,0.824 ± 0.058,0.838 ± 0.055,0.897 ± 0.033,0.897 ± 0.034,0.873 ± 0.016,1.04 ± 0.028,0.986 ± 0.023,1.06 ± 0.027,0.9793 ± 0.0044,0.998 ± 0.019,1.01 ± 0.035,0.99 ± 0.065,0.972 ± 0.028
COLO320DM LARGE INTESTINE,1.03 ± 0.099,1.09 ± 0.065,1.09 ± 0.023,1.01 ± 0.049,0.875 ± 0.04,0.818 ± 0.076,0.572 ± 0.048,0.528 ± 0.032,1.12 ± 0.013,1.14 ± 0.021,1.1 ± 0.045,1.06 ± 0.059,1.2 ± 0.057,1.2 ± 0.15,1.15 ± 0.094,1.14 ± 0.1
JIMT1 BREAST,0.921 ± 0.029,0.892 ± 0.02,0.92 ± 0.063,0.926 ± 0.03,1.02 ± 0.039,1.08 ± 0.094,1.02 ± 0.077,1.02 ± 0.046,0.97 ± 0.037,0.949 ± 0.027,0.999 ± 0.014,0.969 ± 0.015,1.09 ± 0.036,0.949 ± 0.06,1.03 ± 0.031,0.95 ± 0.07
SUM149 BREAST,0.923 ± 0.08,0.951 ± 0.079,0.839 ± 0.035,0.79 ± 0.035,0.827 ± 0.2,0.782 ± 0.082,0.581 ± 0.078,0.553 ± 0.034,1.02 ± 0.019,1.04 ± 0.13,1.02 ± 0.049,0.943 ± 0.074,0.909 ± 0.06,0.905 ± 0.076,0.927 ± 0.057,0.927 ± 0.077
93VU HEADNECK,0.821 ± 0.057,0.793 ± 0.053,0.836 ± 0.041,0.809 ± 0.13,0.974 ± 0.069,0.848 ± 0.014,0.711 ± 0.021,0.724 ± 0.23,1.19 ± 0.012,1.13 ± 0.055,1.26 ± 0.097,1.24 ± 0.21,1.27 ± 0.091,1.28 ± 0.09,1.19 ± 0.027,1.21 ± 0.1
CASKI CERVIX,0.826 ± 0.028,0.849 ± 0.029,0.814 ± 0.049,0.798 ± 0.038,0.976 ± 0.067,0.965 ± 0.064,0.982 ± 0.068,0.982 ± 0.051,0.946 ± 0.064,0.877 ± 0.018,0.954 ± 0.043,0.93 ± 0.069,1.05 ± 0.025,1.04 ± 0.021,1.03 ± 0.077,1.03 ± 0.058
A549 LUNG,0.932 ± 0.016,0.943 ± 0.028,0.948 ± 0.0087,0.931 ± 0.013,0.96 ± 0.029,0.97 ± 0.031,0.935 ± 0.027,0.908 ± 0.025,1.07 ± 0.023,1.08 ± 0.013,1.08 ± 0.02,1.03 ± 0.019,1.1 ± 0.011,1.06 ± 0.019,1.07 ± 0.032,1.09 ± 0.012
HT1080 SOFT TISSUE,1 ± 0.042,1.02 ± 0.023,1.02 ± 0.021,1 ± 0.017,0.979 ± 0.039,0.921 ± 0.027,0.899 ± 0.03,0.869 ± 0.057,1.07 ± 0.024,1.1 ± 0.011,1.09 ± 0.051,1.09 ± 0.013,1.03 ± 0.023,1.04 ± 0.044,1.03 ± 0.058,1.06 ± 0.062
SUM44 BREAST,0.844 ± 0.044,0.878 ± 0.1,0.948 ± 0.047,0.8813 ± 0.0072,1.01 ± 0.17,0.965 ± 0.14,0.887 ± 0.18,0.862 ± 0.13,1.15 ± 0.28,1.05 ± 0.14,1.16 ± 0.23,1.01 ± 0.2,1.28 ± 0.27,1.11 ± 0.1,1.2 ± 0.25,1.07 ± 0.079
NY BONE,0.9347 ± 0.009,0.9183 ± 0.0031,1.027 ± 0.01,0.96 ± 0.011,1 ± 0.011,0.977 ± 0.035,0.903 ± 0.023,0.915 ± 0.038,1.03 ± 0.02,0.9813 ± 0.0058,1.08 ± 0.019,1.03 ± 0.024,1.09 ± 0.019,1.099 ± 0.0055,1.05 ± 0.012,1.03 ± 0.016
VCAP PROSTATE,0.908 ± 0.023,0.867 ± 0.039,0.962 ± 0.028,0.999 ± 0.14,0.942 ± 0.16,0.83 ± 0.064,0.399 ± 0.046,0.188 ± 0.029,1.04 ± 0.067,0.996 ± 0.04,1.11 ± 0.072,1.09 ± 0.11,1.05 ± 0.13,1.21 ± 0.086,1.05 ± 0.07,1.04 ± 0.18
HCC78 LUNG,0.712 ± 0.28,0.809 ± 0.2,0.954 ± 0.15,0.94 ± 0.15,0.801 ± 0.15,0.831 ± 0.13,0.764 ± 0.059,0.842 ± 0.12,1.04 ± 0.061,0.884 ± 0.23,1.2 ± 0.18,0.951 ± 0.25,1 ± 0.22,1.12 ± 0.2,0.973 ± 0.037,0.954 ± 0.18
SKBR3 BREAST,0.752 ± 0.012,0.765 ± 0.027,0.814 ± 0.11,0.841 ± 0.0095,1.05 ± 0.11,0.871 ± 0.11,0.786 ± 0.07,0.681 ± 0.062,1.01 ± 0.098,1.06 ± 0.1,1.06 ± 0.11,0.987 ± 0.2,1.08 ± 0.049,1.04 ± 0.073,1.07 ± 0.073,1.03 ± 0.14
HS57T BREAST,0.862 ± 0.014,0.89 ± 0.068,0.869 ± 0.047,0.902 ± 0.052,0.934 ± 0.032,0.881 ± 0.023,0.915 ± 0.047,0.826 ± 0.082,1.03 ± 0.015,1.08 ± 0.11,1.09 ± 0.028,1.12 ± 0.029,1.11 ± 0.084,1.08 ± 0.033,1.07 ± 0.092,1.05 ± 0.054
MG63 BONE,0.9333 ± 0.0045,0.919 ± 0.025,0.989 ± 0.033,0.963 ± 0.012,0.971 ± 0.03,0.943 ± 0.018,0.896 ± 0.017,0.9223 ± 0.0068,1.08 ± 0.043,1 ± 0.023,1.08 ± 0.031,1.07 ± 0.045,1.08 ± 0.034,1.076 ± 0.004,1.05 ± 0.055,1.01 ± 0.032

# — the supplement of paper PMC6045584
